From ChEMBL document CHEMBL3046186, “Identification of ZINC02765569: a potent inhibitor of PTP1B by vHTS” (2013)

Columns and labels:
[1] = molecular target: T1, Tyrosine-protein phosphatase non-receptor type 1 (Homo sapiens) (UniProt P18031); test: Inhibition of Homo sapiens (human) recombinant PTP1B at 10 uM relative to control
T1 sequence (whole entry): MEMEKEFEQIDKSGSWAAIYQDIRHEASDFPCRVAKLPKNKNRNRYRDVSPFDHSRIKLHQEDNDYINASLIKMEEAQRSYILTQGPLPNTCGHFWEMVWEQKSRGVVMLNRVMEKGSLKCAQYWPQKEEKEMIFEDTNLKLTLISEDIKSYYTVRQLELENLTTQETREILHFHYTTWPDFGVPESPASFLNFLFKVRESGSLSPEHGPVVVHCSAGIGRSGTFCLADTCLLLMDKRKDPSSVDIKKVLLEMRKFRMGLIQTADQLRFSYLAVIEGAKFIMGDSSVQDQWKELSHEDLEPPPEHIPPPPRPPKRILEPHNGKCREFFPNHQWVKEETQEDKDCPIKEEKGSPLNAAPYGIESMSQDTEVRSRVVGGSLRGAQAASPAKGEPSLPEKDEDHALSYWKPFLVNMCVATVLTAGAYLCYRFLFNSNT

[2] = molecular target: T2, Tyrosine-protein phosphatase non-receptor type 1 (Rattus norvegicus) (UniProt P20417); test: Ratio of rosiglitazone activity to compound activity for inhibition of PTP1B in Rattus norvegicus (rat) L6 cells; assay type: cell-based
T2 sequence (whole entry): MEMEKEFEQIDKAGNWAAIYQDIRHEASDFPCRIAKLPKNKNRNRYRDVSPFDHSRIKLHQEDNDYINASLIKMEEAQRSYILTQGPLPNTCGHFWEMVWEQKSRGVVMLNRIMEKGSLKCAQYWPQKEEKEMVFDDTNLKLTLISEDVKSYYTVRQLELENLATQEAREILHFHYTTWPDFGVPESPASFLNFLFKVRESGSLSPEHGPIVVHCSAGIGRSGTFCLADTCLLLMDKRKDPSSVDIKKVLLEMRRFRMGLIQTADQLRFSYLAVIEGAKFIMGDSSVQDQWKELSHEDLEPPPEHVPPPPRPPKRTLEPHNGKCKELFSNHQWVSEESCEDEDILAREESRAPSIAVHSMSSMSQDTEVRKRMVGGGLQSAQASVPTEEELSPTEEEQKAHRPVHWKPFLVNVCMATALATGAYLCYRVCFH

Rattus norvegicus [3] = test: Antihyperglycemic activity in sucrose-challenged streptozotocin-induced Rattus norvegicus Wistar albino (rat) diabetic model assessed as glucose reduction at 30 mg/kg measured at 24 hr relative to control; assay type: functional; design: scale not given: the % may be the effect or the level left
Rattus norvegicus [4] = test: Antihyperglycemic activity in sucrose-challenged streptozotocin-induced Rattus norvegicus Wistar albino (rat) diabetic model assessed as glucose reduction at 30 mg/kg measured at 5 hr relative to control; assay type: functional; design: scale not given: the % may be the effect or the level left
Rattus norvegicus [5] = test: Antihyperglycemic activity in sucrose-loaded Rattus norvegicus Wistar albino (rat) diabetic model assessed as glucose reduction at 30 mg/kg measured at 24 hr relative to control; assay type: functional; design: scale not given: the % may be the effect or the level left
Rattus norvegicus [6] = test: Antihyperglycemic activity in sucrose-loaded Rattus norvegicus Wistar albino (rat) diabetic model assessed as glucose reduction at 30 mg/kg measured at 5 hr relative to control; assay type: functional; design: scale not given: the % may be the effect or the level left
[7] = molecular target: T2, Tyrosine-protein phosphatase non-receptor type 1 (Rattus norvegicus); test: Inhibition of PTP1B in Rattus norvegicus (rat) L6 cells assessed as cellular 2-deoxy-D-[U-14C]glucose uptake at 10 to 50 uM after 18 hr relative to control; assay type: cell-based
[8] = molecular target: T2, Tyrosine-protein phosphatase non-receptor type 1 (Rattus norvegicus); test: Ratio of metformin activity to compound activity for inhibition of PTP1B in Rattus norvegicus (rat) L6 cells; assay type: cell-based
[9] = molecular target: T2, Tyrosine-protein phosphatase non-receptor type 1 (Rattus norvegicus); test: Inhibition of PTP1B in Rattus norvegicus (rat) L6 cells assessed as cellular 2-deoxy-D-[U-14C]glucose uptake at 500 uM after 18 hr relative to control; assay type: cell-based

**Q.** Which inhibition [1] does the source give for `Cc1ccc(C(=O)Nc2ccc(S(=O)(=O)O)c3cc(S(=O)(=O)O)cc(S(=O)(=O)O)c23)cc1NC(=O)c1cccc(NC(=O)Nc2cccc(C(=O)Nc3cc(C(=O)Nc4ccc(S(=O)(=O)O)c5cc(S(=O)(=O)O)cc(S(=O)(=O)O)c45)ccc3C)c2)c1` here?
**A.** 20%

**Q.** With `O=C(CSc1nc2ccccc2[nH]1)Nc1cccc(C(=O)O)c1` as the compound, how does the Ratio [2] read?
**A.** 10

**Q.** What about the Activity (Rattus norvegicus [3]) of the same compound?
**A.** 45%

**Q.** And the Activity (Rattus norvegicus [4])?
**A.** 48%

**Q.** What about the Activity (Rattus norvegicus [5]) of the same compound?
**A.** 33%

**Q.** And the Activity (Rattus norvegicus [6])?
**A.** 32%

**Q.** And the inhibition [1]?
**A.** 24.2%

**Q.** What about the inhibition [7] of the same compound?
**A.** 18.5%

**Q.** What about the Ratio [8] of the same compound?
**A.** 50

**Q.** `CN(C)C(=N)NC(=N)N` [METFORMIN] was tested. Which Activity (Rattus norvegicus [3]) did it give?
**A.** 17%

**Q.** What about the Activity (Rattus norvegicus [4]) of the same compound?
**A.** 18%

**Q.** What about the Activity (Rattus norvegicus [5]) of the same compound?
**A.** 17%

**Q.** And the Activity (Rattus norvegicus [6])?
**A.** 13%

**Q.** And the inhibition [9]?
**A.** 30.2%

**Q.** How did the Activity (Rattus norvegicus [3]) turn out when `CN(CCOc1ccc(CC2SC(=O)NC2=O)cc1)c1ccccn1` (stereo not drawn) [ROSIGLITAZONE] was run?
**A.** 24%

**Q.** And the Activity (Rattus norvegicus [4])?
**A.** 21%

**Q.** What about the Activity (Rattus norvegicus [5]) of the same compound?
**A.** 26%

**Q.** What about the Activity (Rattus norvegicus [6]) of the same compound?
**A.** 23%
